Assay results from US4948782A, “A method of promoting the growth of domestic animals with erythromycin derivative containing composition” (Kitasato Kenkyusho, priority 1987, dated 1990).

Assays:
Type in all cases: cell-based
Escherichia coli NIHJ = assay: MIC, Escherichia coli NIHJ (EC)
Bacillus subtilis = assay: MIC, Bacillus subtilis (BS); conditions: for MIC: read-out: MIC BS
[1] = test system: Klebsiella pneumoniae ATCC 10031; assay: MIC, Klebsiella pneumoniae ATCC 10031 (KP); conditions: Klebsiella pneumoniae ATCC 10031; for MIC: ATCC10031, read-out: MIC KP
Bacillus cereus IFO 3001 = assay: MIC, Bacillus cereus IFO 3001 (BC); conditions: for MIC: Bacillus cereus, IFO3001, Bacillus cereus IFO 3001, read-out: MIC BC
[2] = test system: Staphylococcus aureus ATCC 6538P; assay: MIC, Staphylococcus aureus ATCC 6538P (SA(1)); conditions: Staphylococcus aureus ATCC 6538P; for MIC: Staphylococcus aureus, ATCC6538P, read-out: MIC SA (1)
From the text: (§1) The minimum inhibitory concentrations (MIC: mcg/ml) of the erythromycin derivatives of the present invention and the control erythromycin derivative (*) as the known growth promoting agent on typical test bacteria are shown in the following Tables 1 to 5.
SA(1): Staphylococcus aureus ATCC 6538P

[3] = test system: Staphylococcus aureus FDA 209P; assay: MIC, Staphylococcus aureus FDA 209P (SA(2)); conditions: Staphylococcus aureus FDA 209P; for MIC: Staphylococcus aureus, FDA209P, read-out: MIC SA (2)
From the text: as §1
SA(2): Staphylococcus aureus FDA 209P

SMILES | MIC (Escherichia coli NIHJ) [µg/mL] | MIC (Bacillus subtilis) [µg/mL] | MIC [1] [µg/mL] | MIC (Bacillus cereus IFO 3001) [µg/mL] | MIC [2] [µg/mL] | MIC [3] [µg/mL] | MIC EC (Escherichia coli NIHJ) [µg/mL] | MIC BS (Bacillus subtilis) [µg/mL] | MIC KP [1] [µg/mL] | MIC BC (Bacillus cereus IFO 3001; Bacillus cereus IFO 3001) [µg/mL] | MIC SA (1) [2] [µg/mL] | MIC SA (2) [3] [µg/mL]
CCC1OC(=O)C(C)C(OC2CC(C)(OC)C(O)C(C)O2)C(C)C(OC2OC(C)CC([N+]3(CC)CCCC3)C2O)C2(C)CC(C)=C(O2)C(C)C(O)C1(C)O (stereo not drawn) [Compound 24] | > 100 | > 100 | > 100 | > 100 | > 100 | > 100 | – | – | – | – | – | –
CCC1OC(=O)C(C)C(OC2CC(C)(OC)C(O)C(C)O2)C(C)C(OC2OC(C)CC([N+]3(CC)CCCCC3)C2O)C2(C)CC(C)=C(O2)C(C)C(O)C1(C)O (stereo not drawn) [Compound 26] | > 100 | > 100 | > 100 | > 100 | > 100 | > 100 | – | – | – | – | – | –
CCC1OC(=O)C(C)C(OC2CC(C)(OC)C(O)C(C)O2)C(C)C(OC2OC(C)CC([N+](C)(C)CC)C2O)C2(C)CC(C)=C(O2)C(C)C(OC(C)=O)C1(C)OC(C)=O (stereo not drawn) [Compound 29] | > 100 | 100 | > 100 | 100 | 100 | 50 | – | – | – | – | – | –
CCC1OC(=O)C(C)C(OC2CC(C)(OC)C(O)C(C)O2)C(C)C(OC2OC(C)CC([N+](C)(C)CC(=O)OC)C2O)C2(C)CC(C)=C(O2)C(C)C(O)C1(C)O (stereo not drawn) [Compound 30] | > 100 | > 100 | > 100 | > 100 | > 100 | > 100 | – | – | – | – | – | –
CCC1OC(=O)C(C)C(OC2CC(C)(OC)C(O)C(C)O2)C(C)C(OC2OC(C)CC([N+](C)(C)CCF)C2O)C2(C)CC(C)=C(O2)C(C)C(O)C1(C)O (stereo not drawn) [Compound 32] | > 100 | > 100 | > 100 | > 100 | > 100 | > 100 | – | – | – | – | – | –
C#CCN(C)C1CC(C)OC(OC2C(C)C(OC3CC(C)(OC)C(O)C(C)O3)C(C)C(=O)OC(CC)C(C)(O)C(O)C(C)C3=C(C)CC2(C)O3)C1O (stereo not drawn) [Compound 35] | > 100 | > 100 | > 100 | > 100 | > 100 | > 100 | – | – | – | – | – | –
CCCN(C)C1CC(C)OC(OC2C(C)C(OC3CC(C)(OC)C(O)C(C)O3)C(C)C(=O)OC(CC)C(C)(O)C(O)C(C)C3=C(C)CC2(C)O3)C1O (stereo not drawn) [Compound 36] | > 100 | > 100 | > 100 | > 100 | > 100 | > 100 | – | – | – | – | – | –
C#CCN(CC#C)C1CC(C)OC(OC2C(C)C(OC3CC(C)(OC)C(O)C(C)O3)C(C)C(=O)OC(CC)C(C)(O)C(O)C(C)C3=C(C)CC2(C)O3)C1O (stereo not drawn) [Compound 40] | > 100 | > 100 | > 100 | > 100 | > 100 | > 100 | – | – | – | – | – | –
C#CCNC1CC(C)OC(OC2C(C)C(OC3CC(C)(OC)C(O)C(C)O3)C(C)C(=O)OC(CC)C(C)(O)C(O)C(C)C3=C(C)CC2(C)O3)C1O (stereo not drawn) [Compound 41] | > 100 | > 100 | > 100 | > 100 | > 100 | > 100 | – | – | – | – | – | –
C=CC[N+](C)(CC=C)C1CC(C)OC(OC2C(C)C(OC3CC(C)(OC)C(O)C(C)O3)C(C)C(=O)OC(CC)C(C)(O)C(O)C(C)C3=C(C)CC2(C)O3)C1O (stereo not drawn) [Compound 43] | > 100 | > 100 | > 100 | > 100 | 100 | 100 | – | – | – | – | – | –
C#CC[N+](C)(CC#C)C1CC(C)OC(OC2C(C)C(OC3CC(C)(OC)C(O)C(C)O3)C(C)C(=O)OC(CC)C(C)(O)C(O)C(C)C3=C(C)CC2(C)O3)C1O (stereo not drawn) [Compound 45] | > 100 | > 100 | > 100 | > 100 | 100 | 100 | – | – | – | – | – | –
C=CC[N+](CC=C)(CC=C)C1CC(C)OC(OC2C(C)C(OC3CC(C)(OC)C(O)C(C)O3)C(C)C(=O)OC(CC)C(C)(O)C(O)C(C)C3=C(C)CC2(C)O3)C1O (stereo not drawn) [Compound 46] | > 100 | > 100 | > 100 | > 100 | > 100 | > 100 | – | – | – | – | – | –
C#CC[N+](CC=C)(CC=C)C1CC(C)OC(OC2C(C)C(OC3CC(C)(OC)C(O)C(C)O3)C(C)C(=O)OC(CC)C(C)(O)C(O)C(C)C3=C(C)CC2(C)O3)C1O (stereo not drawn) [Compound 47] | > 100 | 100 | > 100 | 50 | 100 | 100 | – | – | – | – | – | –
C#CC[N+](CC#C)(CC#C)C1CC(C)OC(OC2C(C)C(OC3CC(C)(OC)C(O)C(C)O3)C(C)C(=O)OC(CC)C(C)(O)C(O)C(C)C3=C(C)CC2(C)O3)C1O (stereo not drawn) [Compound 48] | > 100 | 100 | > 100 | 100 | 100 | 100 | – | – | – | – | – | –
C#CC[N+](C)(C)C1CC(C)OC(OC2C(C)C(OC3CC(C)(OC)C(O)C(C)O3)C(C)C(=O)OC(CC)C(C)(O)C(O)C(C)C3=C(C)CC2(C)O3)C1O (stereo not drawn) [Compound 51] | – | – | – | – | – | – | > 100 | > 100 | > 100 | > 100 | > 100 | > 100

Results, then the compound that gave them:

MIC (Escherichia coli NIHJ) [µg/mL] | MIC (Bacillus subtilis) [µg/mL] | MIC [1] [µg/mL] | MIC (Bacillus cereus IFO 3001) [µg/mL] | MIC [2] [µg/mL] | MIC [3] [µg/mL] | MIC EC (Escherichia coli NIHJ) [µg/mL] | MIC BS (Bacillus subtilis) [µg/mL] | MIC KP [1] [µg/mL] | MIC BC (Bacillus cereus IFO 3001; Bacillus cereus IFO 3001) [µg/mL] | MIC SA (1) [2] [µg/mL] | MIC SA (2) [3] [µg/mL] | SMILES
> 100 | > 100 | > 100 | > 100 | > 100 | > 100 | – | – | – | – | – | – | CCC1OC(=O)C(C)C(OC2CC(C)(OC)C(O)C(C)O2)C(C)C(OC2OC(C)CC([N+]3(C)CCCCC3)C2O)C2(C)CC(C)=C(O2)C(C)C(O)C1(C)O (stereo not drawn) [Compound 25]
> 100 | 100 | > 100 | 100 | 100 | 100 | – | – | – | – | – | – | C#CC[N+](C)(C)C1CC(C)OC(OC2C(C)C(OC3CC(C)(OC)C(O)C(C)O3)C(C)C(=O)OC(CC)C(C)(O)C(O)C(C)C3=C(C)CC2(C)O3)C1O (stereo not drawn) [Compound 27]
> 100 | 50 | > 100 | 50 | 50 | 50 | – | – | – | – | – | – | C#CC[N+](C)(C)C1CC(C)OC(OC2C(C)C(OC3CC(C)(OC)C(O)C(C)O3)C(C)C(=O)OC(CC)C(C)(OC(C)=O)C(OC(C)=O)C(C)C3=C(C)CC2(C)O3)C1O (stereo not drawn) [Compound 28]
> 100 | > 100 | > 100 | > 100 | > 100 | > 100 | – | – | – | – | – | – | CCC1OC(=O)C(C)C(OC2CC(C)(OC)C(O)C(C)O2)C(C)C(OC2OC(C)CC([N+](C)(C)CC(=O)O)C2O)C2(C)CC(C)=C(O2)C(C)C(O)C1(C)O (stereo not drawn) [Compound 31]
> 100 | > 100 | > 100 | > 100 | > 100 | > 100 | – | – | – | – | – | – | CCC1OC(=O)C(C)C(OC2CC(C)(OC)C(O)C(C)O2)C(C)C(OC2OC(C)CC([N+](C)(C)CC#N)C2O)C2(C)CC(C)=C(O2)C(C)C(O)C1(C)O (stereo not drawn) [Compound 33]
> 100 | > 100 | > 100 | > 100 | > 100 | > 100 | – | – | – | – | – | – | C=CCN(C)C1CC(C)OC(OC2C(C)C(OC3CC(C)(OC)C(O)C(C)O3)C(C)C(=O)OC(CC)C(C)(O)C(O)C(C)C3=C(C)CC2(C)O3)C1O (stereo not drawn) [Compound 34]
> 100 | > 100 | > 100 | > 100 | > 100 | > 100 | – | – | – | – | – | – | CCC1OC(=O)C(C)C(OC2CC(C)(OC)C(O)C(C)O2)C(C)C(OC2OC(C)CC(N(C)CCO)C2O)C2(C)CC(C)=C(O2)C(C)C(O)C1(C)O (stereo not drawn) [Compound 37]
> 100 | > 100 | > 100 | > 100 | > 100 | > 100 | – | – | – | – | – | – | C=CCN(CC=C)C1CC(C)OC(OC2C(C)C(OC3CC(C)(OC)C(O)C(C)O3)C(C)C(=O)OC(CC)C(C)(O)C(O)C(C)C3=C(C)CC2(C)O3)C1O (stereo not drawn) [Compound 38]
> 100 | > 100 | > 100 | > 100 | > 100 | > 100 | – | – | – | – | – | – | C=CCNC1CC(C)OC(OC2C(C)C(OC3CC(C)(OC)C(O)C(C)O3)C(C)C(=O)OC(CC)C(C)(O)C(O)C(C)C3=C(C)CC2(C)O3)C1O (stereo not drawn) [Compound 39]
> 100 | > 100 | > 100 | > 100 | > 100 | > 100 | – | – | – | – | – | – | C#CCN(CC=C)C1CC(C)OC(OC2C(C)C(OC3CC(C)(OC)C(O)C(C)O3)C(C)C(=O)OC(CC)C(C)(O)C(O)C(C)C3=C(C)CC2(C)O3)C1O (stereo not drawn) [Compound 42]
> 100 | > 100 | > 100 | > 100 | > 100 | 100 | – | – | – | – | – | – | C#CC[N+](C)(CC=C)C1CC(C)OC(OC2C(C)C(OC3CC(C)(OC)C(O)C(C)O3)C(C)C(=O)OC(CC)C(C)(O)C(O)C(C)C3=C(C)CC2(C)O3)C1O (stereo not drawn) [Compound 44]
> 100 | > 100 | > 100 | > 100 | 100 | 100 | – | – | – | – | – | – | CCCC[N+](C)(C)C1CC(C)OC(OC2C(C)C(OC3CC(C)(OC)C(O)C(C)O3)C(C)C(=O)OC(CC)C(C)(O)C(O)C(C)C3=C(C)CC2(C)O3)C1O (stereo not drawn) [Compound 49]
> 100 | > 100 | > 100 | > 100 | > 100 | > 100 | – | – | – | – | – | – | CCC1OC(=O)C(C)C(OC2CC(C)(OC)C(O)C(C)O2)C(C)C(OC2OC(C)CC(NC)C2O)C2(C)CC(C)=C(O2)C(C)C(OC(C)=O)C1(C)OC(C)=O (stereo not drawn) [Compound 52]
